Test results published in article PMC4026384, “Antibacterial Activity of THAM Trisphenylguanide against Methicillin-Resistant Staphylococcus aureus” (PLoS ONE, 2014).
In brackets after ≈: the same amount, converted by molar mass. Entries after “also recorded” stand apart in the source; their conditions may differ. Read-outs that look alike come from different tables or passages of the source.

How the values were obtained:
MRSA strain LAC, USA300 = experiment: Minimum inhibitory concentration (microdilution); format: cell-based, Staphylococcus aureus; conditions: assay described in Material and Methods; controls of the MRSA leakage assay (Figure S2)
Experimental: Minimum inhibitory concentration (MIC) values were determined for those compounds showing the most antibacterial activity in the bacterial viability assays (see Supplemental Materials) against each of the strains of bacteria using a microdilution method in 96 well plates with LB media according to guidelines published by the British Society for Antimicrobial Chemotherapy. Minimum bactericidal concentrations (MBC) were determined by plating 10 µL and 100 µL from each well showing no signs of growth after overnight incubation of the MIC plates and determining the minimum concentration showing a 3-log reduction of viable bacteria. MIC and MBC were also determined in cation-adjusted Mueller-Hinton broth (Hardy Diagnostics, Santa Maria, CA) for some compounds and strains.

MRSA = experiment: Cytoplasmic leakage & bacteriolysis assay; format: cell-based, Staphylococcus aureus; conditions: 1× to 4×MIC, over the 3 hour period
Experimental: Bacteria were cultured to mid-log phase (OD600 ∼0.4) in LB media with shaking. Bacteria were then harvested and resuspended in PBS to a concentration of ∼10^8 CFU/mL. […] Bacteria were monitored over time for cytoplasmic leakage via A260 measurements and for cell viability. For A260 readings, sample aliquots were centrifuged for 5 min at 10,000×g at room temperature to remove cellular debris. Viability was monitored by determining the CFU/mL during the first 3 hours post treatment as described above for the kill curve assays.

[1] = test system: HaCaT human keratinocytes; experiment: Cell toxicity assay (MTS); format: cell-based; conditions: for CC50: MTS assay, concentration which killed 50% of the cells
Experimental: (§1) The HaCaT cell line was grown in Epilife medium (MEPI500Ca) with human keratinocyte growth supplement (Invitrogen, San Diego, CA). Both types of cells were harvested using Tryspin/EDTA and diluted to 1×10^5 cells per well in a 96-well plate. Ten concentrations covering five orders of magnitude were tested with six replicates per concentration. […] MTS/PMS solution (Promega, Madison, WI) was added to the wells and absorbance was measured at 490 nm two to four hours later. Data was analyzed using GraphPad Prism version 5.0 (GraphPad Software, La Jolla, CA) using a variable slope inhibition dose response curve.

[2] = test system: human breast cancer cell line MDA-MB-231; experiment: Cell toxicity assay (MTS); format: cell-based; conditions: MDA-231; for CC50: MTS assay, concentration which killed 50% of the cells
Experimental: as §1

E. coli K91 = experiment: Bacterial viability assay; format: cell-based, Escherichia coli; conditions: one hour in PBS, CFU, ± SEM
Experimental: (§2) Supplementary file pone.0097742.s003.doc: Table S1 Bacterial viability assays. Bacteria were grown at 37°C to mid-log phase (OD600 ∼0.4). The bacteria were diluted to approximately 10^4 to 10^5 colony forming units (CFU) per milliliter and added to a solution of phosphate buffered saline (PBS, 16 mM phosphate, 0.14 M NaCl, pH 7.2) containing the compound at varied concentrations. Samples were incubated at 37°C for one hour and then plated on Luria Bertani (LB) agar at appropriate dilutions in PBS. The plates were incubated overnight at 37°C and colonies enumerated the following day. IC50s were calculated from graphs of CFU as a function of compound concentration. Chlorhexidine was used as a positive control. […] (DOC) Click here for additional data file.
(§3) Bacterial viability assays. Bacteria were grown at 37°C to mid-log phase (OD600 ~0.4). The bacteria were diluted to approximately 10^4 to 10^5 colony forming units (CFU) per milliliter and added to a solution of phosphate buffered saline (PBS, 16 mM phosphate, 0.14 M NaCl, pH 7.2) containing the compound at varied concentrations. Samples were incubated at 37°C for one hour and then plated on Luria Bertani (LB) agar at appropriate dilutions in PBS. The plates were incubated overnight at 37°C and colonies enumerated the following day. IC50s were calculated from graphs of CFU as a function of compound concentration. Chlorhexidine was used as a positive control.

P. aeruginosa PA01 = experiment: Bacterial viability assay; format: cell-based, Pseudomonas aeruginosa; conditions: one hour in PBS, CFU, ± SEM
Experimental: as §2, §3

A. baumannii ATCC 19606 = experiment: Bacterial viability assay; format: cell-based, Acinetobacter baumannii; conditions: one hour in PBS, CFU, ± SEM
Experimental: as §2, §3

[3] = test system: A. baumannii ATCC BAA1605; experiment: Bacterial viability assay; format: cell-based, Acinetobacter baumannii; conditions: one hour in PBS, CFU, ± SEM
Experimental: as §2, §3

E. faecalis MSU#10 = experiment: Bacterial viability assay; format: cell-based, Enterococcus faecalis; conditions: E. faecalis MSU#10, one hour in PBS, CFU, ± SEM, read-out: IC50
Experimental: as §2, §3

E. faecalis V583 = experiment: Bacterial viability assay; format: cell-based, Enterococcus faecalis; conditions: one hour in PBS, CFU, ± SEM
Experimental: as §2, §3

S. aureus RN4220 = experiment: Bacterial viability assay; format: cell-based, Staphylococcus aureus; conditions: one hour in PBS, CFU, ± SEM
Experimental: (§4) Supplementary file pone.0097742.s003.doc: Table S1 Bacterial viability assays. Bacteria were grown at 37°C to mid-log phase (OD600 ∼0.4). The bacteria were diluted to approximately 10^4 to 10^5 colony forming units (CFU) per milliliter and added to a solution of phosphate buffered saline (PBS, 16 mM phosphate, 0.14 M NaCl, pH 7.2) containing the compound at varied concentrations. Samples were incubated at 37°C for one hour and then plated on Luria Bertani (LB) agar at appropriate dilutions in PBS. The plates were incubated overnight at 37°C and colonies enumerated the following day. IC50s were calculated from graphs of CFU as a function of compound concentration. Chlorhexidine was used as a positive control. Included are those guanide (G), biguanide (BG), phenylguanide (ΦG) compounds that had some antibacterial activity in an initial screen at 30 and 100 µM, as well as their and parent amines. Compounds synthesized from 1,4-butanediamine, 1,6-hexanediamine, trisethylaminomelamine, trisbutylaminomelamine, and the dendrimer PAMAM (G0) were not active against E. coli, P aeruginosa, or S. aureus so they were not tested against the remaining bacteria (data not shown). (DOC) Click here for additional data file.
as §4, with “Bacterial” for “Supplementary file pone.0097742.s003.doc: Table S1 Bacterial”, “~0.4).” for “∼0.4).”, “μM,” for “µM,”, “shown).” for “shown). (DOC) Click here for additional data file.”

MRSA USA300 = experiment: Bacterial viability assay; format: cell-based, Staphylococcus aureus; conditions: one hour in PBS, CFU, ± SEM
Experimental: as §2, §3

[4] = Cell toxicity assay (MTS); format: cell-based, human; conditions: human, MTS assay, concentration which killed 50% of the cells
Experimental: as §1

[5] = MDA-MB-231 breast cancer cells (ATCC HTB-26), MDA-231
[6] = Acinetobacter baumannii, ATCC19606, 1 h
[7] = Acinetobacter baumannii, ATCCBAA1605, 1 h

Row | SMILES | Relative to chlorhexidine (factor by which cytotoxicity was reduced) [1] | CC50 [1] [mg/L] | Relative to chlorhexidine (factor by which cytotoxicity was reduced) [2] | CC50 [2] [mg/L] | IC50 (E. coli K91) [µM] | IC50 (P. aeruginosa PA01) [µM] | IC50 (A. baumannii ATCC 19606) [µM] | IC50 [3] [µM] | IC50 (E. faecalis MSU#10) [µM] | IC50 (E. faecalis V583) [µM] | IC50 (S. aureus RN4220) [µM] | IC50 (MRSA USA300) [µM] | further results
1 | CC1(C)S[C@@H]2[C@H](NC(=O)[C@H](N)c3ccccc3)C(=O)N2[C@H]1C(=O)O [Ampicillin] | – | – | – | – | – | – | – | – | – | – | – | – | MIC of control antibiotics (MRSA strain LAC, USA300): 32 mg/L; change in A260 of culture supernatant (cytoplasmic leakage), control antibiotics (MRSA): no increase in A260; also recorded: Significant increases in A260 were not seen
2 | N=C(NCCCCN(CCCNC(=N)Nc1ccccc1)C(=N)Nc1ccccc1)Nc1ccccc1 [Spermidine-3ΦG] | 210 | 400 (≈ 801 µM) | 170 | 430 (≈ 861 µM) | 3.2 ± 0.9 | > 100 | > 100 | > 100 | > 100 | > 100 | > 100 | > 100 | –
3 | NCCCCNCCCN [Spermidine] | >79 | – | 8.5 | – | – | – | – | – | – | – | – | – | CC50 ([4]; HaCaT keratinocytes): > 150 mg/L; CC50 [4, 5]: 22 mg/L (≈ 151 µM); IC50 (E. coli K91; Escherichia coli, 1 h): > 100 µM; IC50 (P. aeruginosa PA01; Pseudomonas aeruginosa, 1 h): > 100 µM; IC50 (A. baumannii ATCC 19606; [6]): > 100 µM; IC50 [3, 7]: > 100 µM; IC50 (E. faecalis MSU#10; Enterococcus faecalis, 1 h): > 100 µM; IC50 (E. faecalis V583; Enterococcus faecalis, 1 h): > 100 µM; IC50 (S. aureus RN4220; Staphylococcus aureus, 1 h): > 100 µM; IC50 (MRSA USA300; Staphylococcus aureus, 1 h): > 100 µM
4 | N=C(NCCCN(CCCCN(CCCNC(=N)Nc1ccccc1)C(=N)Nc1ccccc1)C(=N)Nc1ccccc1)Nc1ccccc1 [Spermine-4ΦG] | 56 | 110 (≈ 163 µM) | >43 | >110 | 23 ± 16 | > 100 | ≥ 100 | ≥ 100 | > 100 | > 100 | – | > 100 | –
5 | NCCCNCCCCNCCCN [Spermine] | >110 | – | 3.7 | – | – | – | – | – | – | – | – | – | CC50 ([4]; HaCaT keratinocytes): > 200 mg/L; CC50 [4, 5]: 10 mg/L (≈ 49.4 µM); IC50 (E. coli K91; Escherichia coli, 1 h): > 100 µM; IC50 (P. aeruginosa PA01; Pseudomonas aeruginosa, 1 h): ≥ 100 µM; IC50 (A. baumannii ATCC 19606; [6]): ≥ 100 µM; IC50 [3, 7]: 79 ± 24 µM; IC50 (E. faecalis MSU#10; Enterococcus faecalis, 1 h): > 100 µM; IC50 (E. faecalis V583; Enterococcus faecalis, 1 h): > 100 µM; IC50 (S. aureus RN4220; Staphylococcus aureus, 1 h): > 100 µM; IC50 (MRSA USA300; Staphylococcus aureus, 1 h): > 100 µM
6 | N=C(N)NCCCCCCNc1nc(NCCCCCCNC(=N)N)nc(NCCCCCCNC(=N)N)n1 [THAM-3G] | 33 | 63 (≈ 115 µM) | 29 | 74 (≈ 135 µM) | 31 ± 12 | 14 ± 3 | 23 ± 14 | 14 ± 4 | > 100 | > 100 | > 100 | > 100 | –
7 | NCCCCCCNc1nc(NCCCCCCN)nc(NCCCCCCN)n1 [THAM] | 100 | 200 (≈ 472 µM) | >290 | >770 | > 100 | > 100 | > 100 | > 100 | > 100 | > 100 | > 100 | > 100 | –
8 | N=C(NCCCCCCCCNc1nc(NCCCCCCCCN)nc(NCCCCCCCCNC(=N)Nc2ccccc2)n1)Nc1ccccc1 [TOAM-2ΦG] | 1.6 | 3.1 (≈ 4.17 µM) | – | – | 0.75 ± 0.09 | 1.6 ± 0.4 | 0.64 ± 0.19 | 0.96 ± 0.02 | 6.1 ± 4.9 | 11 ± 3 | 2.4 ± 0.1 | 0.6 ± 0.32 | –
9 | CNC(C)C1CCC(N)C(OC2C(N)CC(N)C(OC3OCC(C)(O)C(NC)C3O)C2O)O1 (stereo not shown) [gentamicin] | – | – | – | – | – | – | – | – | – | – | – | – | MIC of control antibiotics (MRSA strain LAC, USA300): 0.5 mg/L; change in A260 of culture supernatant (cytoplasmic leakage), control antibiotics (MRSA): no increase in A260; also recorded: Significant increases in A260 were not seen
